Values after ≈ are worked out from the molar mass of the structure shown. Counter-ions that a name gives are not always drawn.
Assays:
RAW264.7 = assay: cytotoxicity (LDH release relative to maximum lysis); higher = more toxic; conditions: 50 µM; 2 h
[1] = system: Salmonella enterica serovar Typhimurium SL1344
[2] = system: Salmonella enterica serovar Typhimurium SL1344; assay: intracellular MIC (10-fold luminescence reduction); higher = less potent; conditions: RAW264.7 macrophages

| Compound | MIC ([1]; LPM pH 5.8) [µM] | MIC ([1]; MHB) [µM] | MIC ([1]; MOPS glucose minimal medium) [µM] | intracellular MIC [2] [µM] | cytotoxicity (RAW264.7) [%] |
| --- | --- | --- | --- | --- | --- |
| C[C@H]1c2cccc(O)c2C(=O)C2=C(O)[C@]3(O)C(=O)C(C(N)=O)=C(O)[C@@H](N(C)C)[C@@H]3[C@@H](O)[C@@H]21 [DOXYCYCLINE HYDROCHLORIDE] | 1.56 | 6.25 | 6.25 | ≤ 0.78 | 8.01 |
| O.O.O=C([O-])CN(CCN(CC(=O)[O-])CC(=O)O)CC(=O)O.[Na+].[Na+] [EDETATE DISODIUM] | > 50 | > 50 | 50 | > 50 | 19.1 |
| CC[C@H]1OC(=O)[C@H](C)[C@@H](O[C@H]2C[C@@](C)(OC)[C@@H](O)[C@H](C)O2)[C@H](C)[C@@H](O[C@@H]2O[C@H](C)C[C@H](N(C)C)[C@H]2O)[C@](C)(O)C[C@@H](C)C(=O)[C@H](C)[C@@H](O)[C@]1(C)O [ERYTHROMYCIN] | > 50 | > 50 | > 50 | 1.56 | 6.32 |
| C[C@]12CC[C@@H]3c4ccc(OC(=O)c5ccccc5)cc4CC[C@H]3[C@@H]1CC[C@@H]2O [ESTRADIOL BENZOATE] | > 50 | > 50 | > 50 | > 50 | 20.3 |
| CCOc1ccc(Cc2nccc3cc(OCC)c(OCC)cc23)cc1OCC [ETHAVERINE HYDROCHLORIDE] | > 50 | > 50 | > 50 | > 50 | 12.8 |
| CCN(CC)C(C)CN1c2ccccc2Sc2ccccc21 (stereo not given) [ETHOPROPAZINE HYDROCHLORIDE] | > 50 | > 50 | > 50 | ≤ 0.78 | 11.8 |
| Nc1ccncc1 [FAMPRIDINE] | > 50 | > 50 | > 50 | > 50 | 20.4 |
| CS(=O)(=O)c1ccc([C@@H](O)[C@@H](CF)NC(=O)C(Cl)Cl)cc1 [FLORFENICOL] | ≤ 0.78 | 12.5 (≈ 4.48 µg/mL) | 6.25 (≈ 2.24 µg/mL) | 6.25 | 21.3 |
| O=c1[nH]cc(F)c(=O)[nH]1 [FLUOROURACIL] | ≤ 0.78 | > 50 | ≤ 0.78 | ≤ 0.78 | 8.29 |
| O=C1OCCN1/N=C/c1ccc([N+](=O)[O-])o1 [FURAZOLIDONE] | 6.25 (≈ 1.41 µg/mL) | 12.5 (≈ 2.81 µg/mL) | 12.5 (≈ 2.81 µg/mL) | ≤ 0.78 | 6.45 |
| CCCCC(CC)CN1CN(CC(CC)CCCC)CC(C)(N)C1 (stereo not given) [HEXETIDINE] | 25 (≈ 8.49 µg/mL) | > 50 | > 50 | > 50 | 49.5 |
| CCCCCN(C)CCC(O)(P(=O)(O)O)P(=O)(O)O [IBANDRONATE SODIUM] | > 50 | > 50 | > 50 | 1.56 | 6.92 |
| N[C@@H](Cc1cc(I)c(Oc2ccc(O)c(I)c2)c(I)c1)C(=O)O [LIOTHYRONINE] | > 50 | > 50 | > 50 | > 50 | 6.23 |
| CCOC(=O)Nc1nc2ccccc2[nH]1 [LOBENDAZOLE] | 50 (≈ 10.3 µg/mL) | > 50 | > 50 | > 50 | 21.1 |
| CCCCc1nc(Cl)c(CO)n1Cc1ccc(-c2ccccc2-c2nnn[nH]2)cc1 [LOSARTAN] | > 50 | > 50 | > 50 | > 50 | 5.92 |
| NCc1ccc(S(N)(=O)=O)cc1 [MAFENIDE HYDROCHLORIDE] | > 50 | > 50 | > 50 | 1.56 | 7.52 |
| CNCCCC12CCC(c3ccccc31)c1ccccc12 [MAPROTILINE HYDROCHLORIDE] | > 50 | > 50 | > 50 | 3.13 | 34 |
| C=C1c2c(Cl)ccc(O)c2C(=O)C2=C(O)[C@]3(O)C(=O)C(C(N)=O)=C(O)[C@@H](N(C)C)[C@@H]3[C@@H](O)[C@H]12.O=C(O)c1cc(S(=O)(=O)O)ccc1O [MECLOCYCLINE SULFOSALICYLATE] | ≤ 0.78 | ≤ 0.78 | ≤ 0.78 | 3.13 | 16.3 |
| CC(=O)[C@H]1CC[C@H]2[C@@H]3C[C@H](C)C4=CC(=O)CC[C@]4(C)[C@H]3[C@@H](O)C[C@]12C [MEDRYSONE] | > 50 | > 50 | > 50 | > 50 | 7.6 |
| CCCNC(C)(C)COC(=O)c1ccccc1 [MEPRYLCAINE HYDROCHLORIDE] | > 50 | > 50 | > 50 | 1.56 | 6.92 |
| C[C@@H](O)[C@H]1C(=O)N2C(C(=O)O)=C(S[C@@H]3CN[C@H](C(=O)N(C)C)C3)[C@H](C)[C@H]12 [MEROPENEM] | 3.13 (≈ 1.2 µg/mL) | 12.5 (≈ 4.79 µg/mL) | 6.25 (≈ 2.4 µg/mL) | 3.13 | 14.9 |
| CN1C[C@H](CNC(=O)OCc2ccccc2)C[C@@H]2c3cccc4c3c(cn4C)C[C@H]21 [METERGOLINE] | > 50 | > 50 | > 50 | ≤ 0.78 | 16.2 |
| C=C1c2cccc(O)c2C(=O)C2=C(O)[C@]3(O)C(=O)C(C(N)=O)=C(O)[C@@H](N(C)C)[C@@H]3[C@@H](O)[C@H]12 [METHACYCLINE HYDROCHLORIDE] | ≤ 0.78 | 6.25 | 3.13 | 3.13 | 13.8 |
| C[C@H]1C[C@@H]2[C@H]([C@@H](O)C[C@@]3(C)[C@H]2CC[C@]3(O)C(=O)CO)[C@@]2(C)C=CC(=O)C=C12 [METHYLPREDNISOLONE] | > 50 | > 50 | > 50 | > 50 | 8.21 |
| CN(C)c1ccc(O)c2c1C[C@H]1C[C@H]3[C@H](N(C)C)C(O)=C(C(N)=O)C(=O)[C@@]3(O)C(O)=C1C2=O [MINOCYCLINE HYDROCHLORIDE] | ≤ 0.78 | 12.5 | 6.25 | 12.5 | 21 |
| C/C(=C\C(=O)OCCCCCCCCC(=O)O)C[C@@H]1OC[C@H](C[C@@H]2O[C@H]2[C@@H](C)[C@H](C)O)[C@@H](O)[C@H]1O [MUPIROCIN] | ≤ 0.78 | > 50 | 25 (≈ 12.5 µg/mL) | 25 | 15.4 |
| CO[C@]12C[C@@H](COC(=O)c3cncc(Br)c3)CN(C)[C@@H]1Cc1cn(C)c3cccc2c13 [NICERGOLINE] | > 50 | > 50 | > 50 | 25 | 20.4 |
| COC(=O)C1=C(C)NC(C)=C(C(=O)OCC(C)C)C1c1ccccc1[N+](=O)[O-] (stereo not given) [NISOLDIPINE] | 12.5 (≈ 4.86 µg/mL) | > 50 | > 50 | > 50 | 20.8 |

The next lines start with results.

| MIC ([1]; LPM pH 5.8) [µM] | MIC ([1]; MHB) [µM] | MIC ([1]; MOPS glucose minimal medium) [µM] | intracellular MIC [2] [µM] | Compound | cytotoxicity (RAW264.7) [%] |
| --- | --- | --- | --- | --- | --- |
| ≤ 0.78 | > 50 | 1.56 (≈ 0.384 µg/mL) | 6.25 | C[C@H]1O[C@@H](n2cc(F)c(=O)[nH]c2=O)[C@H](O)[C@@H]1O [DOXIFLURIDINE] | 13 |
| 6.25 (≈ 2 µg/mL) | ≤ 0.78 | ≤ 0.78 | 3.13 | CCn1cc(C(=O)O)c(=O)c2cc(F)c(N3CCNCC3)nc21 [ENOXACIN] | 20.8 |
| ≤ 0.78 | ≤ 0.78 | ≤ 0.78 | > 50 | O=c1[nH]c(=O)n([C@H]2C[C@H](O)[C@@H](CO)O2)cc1F [FLOXURIDINE] | 18.7 |
| ≤ 0.78 | 6.25 (≈ 1.63 µg/mL) | 1.56 (≈ 0.408 µg/mL) | > 50 | CC1CCc2cc(F)cc3c(=O)c(C(=O)O)cn1c23 (stereo not given) [FLUMEQUINE] | 20.1 |
| ≤ 0.78 | ≤ 0.78 | ≤ 0.78 | ≤ 0.78 | COc1c(N2CCNC(C)C2)c(F)cc2c(=O)c(C(=O)O)cn(C3CC3)c12 (stereo not given) [GATIFLOXACIN] | 21.7 |
| ≤ 0.78 | ≤ 0.78 | ≤ 0.78 | 1.56 | CO/N=C1\CN(c2nc3c(cc2F)c(=O)c(C(=O)O)cn3C2CC2)CC1CN (stereo not given) [GEMIFLOXACIN MESYLATE] | 5.86 |
| ≤ 0.78 | ≤ 0.78 | ≤ 0.78 | ≤ 0.78 | C[C@H]1COc2c(N3CCN(C)CC3)c(F)cc3c(=O)c(C(=O)O)cn1c23 [LEVOFLOXACIN] | 21 |
| 1.56 | ≤ 0.78 | ≤ 0.78 | ≤ 0.78 | CCn1cc(C(=O)O)c(=O)c2cc(F)c(N3CCNC(C)C3)c(F)c21 (stereo not given) [LOMEFLOXACIN HYDROCHLORIDE] | 15.9 |
| > 50 | > 50 | > 50 | ≤ 0.78 | Cc1ccc(Nc2c(F)cccc2Cl)c(CC(=O)O)c1 [LUMIRACOXIB] | 7.05 |
| > 50 | > 50 | > 50 | > 50 | Cc1ccc(Cl)c(Nc2ccccc2C(=O)O)c1Cl [MECLOFENAMATE SODIUM] | 7.81 |
| > 50 | > 50 | > 50 | > 50 | COc1c(N2C[C@@H]3CCCN[C@@H]3C2)c(F)cc2c(=O)c(C(=O)O)cn(C3CC3)c12 [MOXIFLOXACIN HYDROCHLORIDE] | 24.3 |
| ≤ 0.78 | 3.13 (≈ 1.13 µg/mL) | 1.56 (≈ 0.562 µg/mL) | 1.56 | CC1CCc2c(N3CCC(O)CC3)c(F)cc3c(=O)c(C(=O)O)cn1c23 (stereo not given) [NADIFLOXACIN] | 12.7 |
| ≤ 0.78 | 25 (≈ 5.81 µg/mL) | 6.25 (≈ 1.45 µg/mL) | > 50 | CCn1cc(C(=O)O)c(=O)c2ccc(C)nc21 [NALIDIXIC ACID] | 16 |

From the supplement of paper PMC6331611
